{"source": "patent US10442796B2", "about": "“2,3,5-substituted thiophene compound as protein kinase inhibitor” (KOREA INSTITUTE OF SCIENCE AND TECHNOLOGY, priority 2016, dated 2019)", "key": {"[1]": {"assay": "Body weight change during bioluminescent in vivo efficacy study", "design": "species or system mouse", "details": "po, qd", "experimental": "Each compound was dissolved in NMP at 20× final concentration and diluted to 1× with the remaining vehicle components (vehicle: 5% NMP, 15% solutol (Sigma-aldrich), 30% PEG400 (Sigma-aldrich), 50% 0.05M citric acid (Sigma-aldrich)). Each compound solution was prepared freshly just before administration. Compounds were administered orally using a mouse sondae once a day, 0.1 mL per mouse. Mice were humanely euthanized if animals experience 20% body weight loss.\nD-Luciferin (Promega) was dissolved in DPBS (Welgene) (without Ca2+ and Mg2+) at 15 mg/mL, and the stock solution was prepared after filtration using 0.22 μm syringe filters (BD). Luciferin solution (150 mg/kg in DPBS) was injected intraperitoneally into each mouse (200 μL/mouse). After 5 min, mice were anesthetized for 5 min using isoflurane (JW Pharma). Luminescence signal was read using IVIS200 (exposure time: auto, binning: 8, F/stop: 1). Signal intensity and body weights were measured every 3 days to monitor the ROI intensity and treatment-induced body weight loss. […] Data was analyzed using Living Image software (Caliper, PerkinElmer).\nStatistical analysis of luminescence signal intensity, mouse body weight, and spleen/body weight ratio were evaluated using two-way ANOVA. Differences were considered statistically significant at p<0.005."}, "[2]": {"tested_on": "FLT3-ITD-F691L-D835Y Ba/F3 cells", "assay": "In vivo life-span (survival) in mouse AML model", "details": "for extension of lifespan compared with vehicle control: oral; for Median survival: qd", "experimental": "(§1) Nude mice (5-6 weeks old)(Orient) were purchased and used after a week. Mice were anesthetized following IACUC approved animal protocol. FLT3-ITD F691L-D835Y, luc+ Ba/F3 cell (Established in-house) suspension (in 0.1 mL RPMI1640 (Welgene) of 1.0×10^6 cells) was injected into tail vein intravenously using a 29-G needle, and an tail mark was added to each animal for identification. After 6 days, the luminescence intensity was measured using IVIS (Perkin Elmer) to calculate the ROI intensity.\nEach compound solution was prepared freshly just before administration. Compounds were administered orally using a mouse sondae once a day, 0.1 mL per mouse. Mice were humanely euthanized if animals experience 20% body weight loss."}, "[3]": {"tested_on": "FLT3-ITD-F691L-D835Y Ba/F3 cells", "assay": "Spleen size in mouse AML model", "assay_type": "in vivo", "details": "15, 30 mg/kg; after drug administration for 9 days", "experimental": "as §1, with “intensity. Once ROI intensity reaches the study-desired minimum intensity (usually 2×106), mice were randomized into different treatment groups based on signal intensity.” for “intensity.”\nEach compound was dissolved in NMP at 20× final concentration and diluted to 1× with the remaining vehicle components (vehicle: 5% NMP, 15% solutol (Sigma-aldrich), 30% PEG400 (Sigma-aldrich), 50% 0.05M citric acid (Sigma-aldrich)). Each compound solution was prepared freshly just before administration. […]\nMice were then euthanized by cervical dislocation while they were still under isoflurane anesthesia. The spleens from the mice were isolated and weighted, and spleen weight index was calculated as organ weight (mg) per gram of mouse body weight. […]\nStatistical analysis of luminescence signal intensity, mouse body weight, and spleen/body weight ratio were evaluated using two-way ANOVA. […]"}, "[4]": {"target": "YANK2 (Homo sapiens, UniProt Q9NY57)", "assay": "Kinase inhibitory activity, full kinase panel", "assay_type": "biochemical", "details": "single concentration of 1 μM, read-out: %Inhibitory ability", "experimental": "(§2) In order to measure inhibitory activity (% inhibitory ability) against a protein kinase with respect to the compound of the present invention, a biochemical assay was performed in a full kinase panel shown in the following Table 1. As an experimental compound, the (S)-5-((3-fluorophenyl)ethynyl)-N-(piperidin-3-yl)-3-ureidothiophene-2-carboxamide synthesized in Example 24 was used."}, "[5]": {"target": "JAK2 (Homo sapiens, UniProt O60674)", "assay": "Kinase inhibitory activity, full kinase panel", "assay_type": "biochemical", "details": "single concentration of 1 μM, read-out: %Inhibitory ability", "experimental": "as §2"}, "[6]": {"target": "MAP4K2 (Homo sapiens, UniProt Q12851)", "assay": "Kinase inhibitory activity, full kinase panel", "assay_type": "biochemical", "details": "single concentration of 1 μM, read-out: %Inhibitory ability", "experimental": "as §2"}, "[7]": {"target": "MEK2 (Homo sapiens, UniProt P36507)", "sequence (P36507 whole entry, species assumed)": "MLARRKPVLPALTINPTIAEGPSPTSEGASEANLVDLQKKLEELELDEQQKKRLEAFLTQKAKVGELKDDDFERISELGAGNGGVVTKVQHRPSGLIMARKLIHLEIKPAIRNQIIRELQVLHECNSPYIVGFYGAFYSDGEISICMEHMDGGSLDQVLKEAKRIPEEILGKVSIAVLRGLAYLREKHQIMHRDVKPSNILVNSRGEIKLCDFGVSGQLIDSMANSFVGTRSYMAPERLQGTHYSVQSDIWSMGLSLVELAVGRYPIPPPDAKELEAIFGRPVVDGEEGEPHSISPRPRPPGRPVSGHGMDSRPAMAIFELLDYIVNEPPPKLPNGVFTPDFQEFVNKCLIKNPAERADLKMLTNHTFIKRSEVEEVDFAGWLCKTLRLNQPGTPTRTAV", "assay": "Kinase inhibitory activity, full kinase panel", "assay_type": "biochemical", "details": "single concentration of 1 μM, read-out: %Inhibitory ability", "experimental": "as §2"}, "[8]": {"target": "MAPKAPK5 (Homo sapiens, UniProt Q8IW41)", "assay": "Kinase inhibitory activity, full kinase panel", "assay_type": "biochemical", "details": "single concentration of 1 μM, read-out: %Inhibitory ability", "experimental": "as §2"}, "[9]": {"target": "MINK (Homo sapiens, UniProt Q8N4C8)", "sequence (Q8N4C8 whole entry)": "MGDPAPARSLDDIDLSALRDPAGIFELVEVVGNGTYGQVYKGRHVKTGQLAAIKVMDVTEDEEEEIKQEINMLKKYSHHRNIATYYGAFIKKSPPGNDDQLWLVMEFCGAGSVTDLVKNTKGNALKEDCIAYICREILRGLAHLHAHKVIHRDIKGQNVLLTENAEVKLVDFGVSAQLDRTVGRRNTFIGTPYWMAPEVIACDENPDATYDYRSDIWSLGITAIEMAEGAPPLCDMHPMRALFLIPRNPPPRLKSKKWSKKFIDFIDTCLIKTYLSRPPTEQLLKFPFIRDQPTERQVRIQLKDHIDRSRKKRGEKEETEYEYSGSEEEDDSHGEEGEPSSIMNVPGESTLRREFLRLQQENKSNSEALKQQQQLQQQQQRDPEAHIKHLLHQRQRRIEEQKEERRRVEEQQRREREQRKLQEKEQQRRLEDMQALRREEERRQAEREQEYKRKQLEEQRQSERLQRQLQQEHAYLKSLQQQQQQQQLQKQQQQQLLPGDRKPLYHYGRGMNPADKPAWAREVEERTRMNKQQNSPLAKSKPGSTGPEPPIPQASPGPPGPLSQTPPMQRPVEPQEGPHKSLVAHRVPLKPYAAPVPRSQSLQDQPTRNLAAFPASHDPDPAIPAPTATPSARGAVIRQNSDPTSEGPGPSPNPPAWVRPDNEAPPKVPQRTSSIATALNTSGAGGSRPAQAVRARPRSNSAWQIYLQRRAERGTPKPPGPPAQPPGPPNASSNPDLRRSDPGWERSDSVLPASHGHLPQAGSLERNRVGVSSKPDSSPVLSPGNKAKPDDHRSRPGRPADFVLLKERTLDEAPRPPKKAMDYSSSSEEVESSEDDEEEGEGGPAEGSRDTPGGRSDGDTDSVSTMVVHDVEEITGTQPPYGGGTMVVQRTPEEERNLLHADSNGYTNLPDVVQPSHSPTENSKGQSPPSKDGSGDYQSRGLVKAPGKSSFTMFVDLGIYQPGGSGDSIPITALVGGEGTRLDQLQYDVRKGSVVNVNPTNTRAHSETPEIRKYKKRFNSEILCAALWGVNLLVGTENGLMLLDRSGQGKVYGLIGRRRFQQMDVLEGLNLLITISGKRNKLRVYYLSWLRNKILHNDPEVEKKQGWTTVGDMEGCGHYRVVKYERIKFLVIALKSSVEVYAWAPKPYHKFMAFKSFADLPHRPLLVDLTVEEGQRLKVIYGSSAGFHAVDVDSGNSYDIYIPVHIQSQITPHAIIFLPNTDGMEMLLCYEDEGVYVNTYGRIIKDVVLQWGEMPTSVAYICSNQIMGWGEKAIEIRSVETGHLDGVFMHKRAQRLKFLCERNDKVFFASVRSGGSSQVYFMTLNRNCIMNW", "assay": "Kinase inhibitory activity, full kinase panel", "assay_type": "biochemical", "details": "single concentration of 1 μM, read-out: %Inhibitory ability", "experimental": "as §2"}, "[10]": {"target": "MEK5 (Homo sapiens, UniProt Q13163)", "assay": "Kinase inhibitory activity, full kinase panel", "assay_type": "biochemical", "details": "single concentration of 1 μM, read-out: %Inhibitory ability", "experimental": "as §2"}, "[11]": {"target": "MST4 (Homo sapiens, UniProt Q9P289)", "assay": "Kinase inhibitory activity, full kinase panel", "assay_type": "biochemical", "details": "single concentration of 1 μM, read-out: %Inhibitory ability", "experimental": "as §2"}, "[12]": {"target": "FGR (Homo sapiens, UniProt P09769)", "sequence (P09769 whole entry, species assumed)": "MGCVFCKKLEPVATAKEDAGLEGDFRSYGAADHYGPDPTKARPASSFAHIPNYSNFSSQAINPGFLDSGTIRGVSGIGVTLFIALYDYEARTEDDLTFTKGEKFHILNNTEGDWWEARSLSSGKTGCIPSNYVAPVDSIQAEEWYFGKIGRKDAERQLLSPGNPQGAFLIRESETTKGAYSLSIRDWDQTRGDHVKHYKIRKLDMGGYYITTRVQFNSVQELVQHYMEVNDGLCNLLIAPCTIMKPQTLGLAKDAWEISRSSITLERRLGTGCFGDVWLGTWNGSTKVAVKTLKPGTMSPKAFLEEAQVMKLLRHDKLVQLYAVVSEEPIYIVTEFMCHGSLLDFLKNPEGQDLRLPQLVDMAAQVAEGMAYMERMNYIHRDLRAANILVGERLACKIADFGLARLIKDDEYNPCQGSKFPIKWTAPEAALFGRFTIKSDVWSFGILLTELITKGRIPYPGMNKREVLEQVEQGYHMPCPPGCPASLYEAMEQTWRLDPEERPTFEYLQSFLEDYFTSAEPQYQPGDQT", "assay": "Kinase inhibitory activity, full kinase panel", "assay_type": "biochemical", "details": "single concentration of 1 μM, read-out: %Inhibitory ability", "experimental": "as §2"}, "[13]": {"target": "FLT4 (Homo sapiens, UniProt P35916)", "assay": "Kinase inhibitory activity, full kinase panel", "assay_type": "biochemical", "details": "single concentration of 1 μM, read-out: %Inhibitory ability", "experimental": "as §2"}, "[14]": {"target": "AAK1 (Homo sapiens, UniProt Q2M2I8)", "assay": "Kinase inhibitory activity, full kinase panel", "assay_type": "biochemical", "details": "single concentration of 1 μM, read-out: %Inhibitory ability", "experimental": "as §2"}, "[15]": {"target": "SRPK1 (Homo sapiens, UniProt Q96SB4)", "assay": "Kinase inhibitory activity, full kinase panel", "assay_type": "biochemical", "details": "single concentration of 1 μM, read-out: %Inhibitory ability", "experimental": "as §2"}, "[16]": {"target": "MEK3 (Homo sapiens, UniProt P46734)", "sequence (P46734 whole entry, species assumed)": "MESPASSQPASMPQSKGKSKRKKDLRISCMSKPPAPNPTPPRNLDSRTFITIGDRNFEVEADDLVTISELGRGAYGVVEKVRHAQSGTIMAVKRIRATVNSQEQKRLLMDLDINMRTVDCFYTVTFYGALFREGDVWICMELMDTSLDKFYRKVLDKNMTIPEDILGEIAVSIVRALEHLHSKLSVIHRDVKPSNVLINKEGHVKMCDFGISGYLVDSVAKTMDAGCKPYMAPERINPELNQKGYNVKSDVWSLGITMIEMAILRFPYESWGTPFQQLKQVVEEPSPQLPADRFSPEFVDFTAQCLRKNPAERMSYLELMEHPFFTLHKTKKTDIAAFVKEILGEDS", "assay": "Kinase inhibitory activity, full kinase panel", "assay_type": "biochemical", "details": "single concentration of 1 μM, read-out: %Inhibitory ability", "experimental": "as §2"}, "[17]": {"target": "TNIK (Homo sapiens, UniProt Q9UKE5)", "assay": "Kinase inhibitory activity, full kinase panel", "assay_type": "biochemical", "details": "single concentration of 1 μM, read-out: %Inhibitory ability", "experimental": "as §2"}, "[18]": {"target": "CHEK1 (Homo sapiens, UniProt O14757)", "sequence (O14757 whole entry, species assumed)": "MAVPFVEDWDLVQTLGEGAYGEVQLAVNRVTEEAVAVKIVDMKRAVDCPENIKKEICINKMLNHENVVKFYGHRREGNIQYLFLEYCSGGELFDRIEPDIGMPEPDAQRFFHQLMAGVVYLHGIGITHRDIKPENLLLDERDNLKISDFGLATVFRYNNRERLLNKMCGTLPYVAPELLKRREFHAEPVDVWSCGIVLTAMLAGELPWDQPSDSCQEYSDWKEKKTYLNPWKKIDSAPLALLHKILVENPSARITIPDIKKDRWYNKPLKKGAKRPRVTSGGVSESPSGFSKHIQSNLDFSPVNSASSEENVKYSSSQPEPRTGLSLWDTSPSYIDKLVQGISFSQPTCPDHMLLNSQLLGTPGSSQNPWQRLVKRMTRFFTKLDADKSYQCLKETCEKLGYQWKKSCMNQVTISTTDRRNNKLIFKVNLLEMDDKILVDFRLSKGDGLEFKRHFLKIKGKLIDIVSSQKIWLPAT", "assay": "Kinase inhibitory activity, full kinase panel", "assay_type": "biochemical", "details": "single concentration of 1 μM, read-out: %Inhibitory ability", "experimental": "as §2"}, "[19]": {"target": "DRAK1 (Homo sapiens, UniProt Q9UEE5)", "sequence (Q9UEE5 whole entry, species assumed)": "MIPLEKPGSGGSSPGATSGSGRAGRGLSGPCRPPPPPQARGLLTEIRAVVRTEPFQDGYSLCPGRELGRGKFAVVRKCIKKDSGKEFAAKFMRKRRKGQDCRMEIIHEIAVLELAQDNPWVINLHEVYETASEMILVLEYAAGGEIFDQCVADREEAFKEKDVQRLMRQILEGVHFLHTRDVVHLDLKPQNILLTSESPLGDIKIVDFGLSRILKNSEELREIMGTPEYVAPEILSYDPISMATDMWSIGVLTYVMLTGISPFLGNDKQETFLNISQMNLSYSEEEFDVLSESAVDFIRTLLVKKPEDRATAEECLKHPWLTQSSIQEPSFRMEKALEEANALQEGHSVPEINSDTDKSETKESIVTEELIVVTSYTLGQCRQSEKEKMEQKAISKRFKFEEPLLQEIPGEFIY", "assay": "Kinase inhibitory activity, full kinase panel", "assay_type": "biochemical", "details": "single concentration of 1 μM, read-out: %Inhibitory ability", "experimental": "as §2"}, "[20]": {"target": "ZAP70 (Homo sapiens, UniProt P43403)", "assay": "Kinase inhibitory activity, full kinase panel", "assay_type": "biochemical", "details": "single concentration of 1 μM, read-out: %Inhibitory ability", "experimental": "as §2"}, "[21]": {"target": "VEGFR2 (Homo sapiens, UniProt P35968)", "sequence (P35968 20-1356, species assumed)": "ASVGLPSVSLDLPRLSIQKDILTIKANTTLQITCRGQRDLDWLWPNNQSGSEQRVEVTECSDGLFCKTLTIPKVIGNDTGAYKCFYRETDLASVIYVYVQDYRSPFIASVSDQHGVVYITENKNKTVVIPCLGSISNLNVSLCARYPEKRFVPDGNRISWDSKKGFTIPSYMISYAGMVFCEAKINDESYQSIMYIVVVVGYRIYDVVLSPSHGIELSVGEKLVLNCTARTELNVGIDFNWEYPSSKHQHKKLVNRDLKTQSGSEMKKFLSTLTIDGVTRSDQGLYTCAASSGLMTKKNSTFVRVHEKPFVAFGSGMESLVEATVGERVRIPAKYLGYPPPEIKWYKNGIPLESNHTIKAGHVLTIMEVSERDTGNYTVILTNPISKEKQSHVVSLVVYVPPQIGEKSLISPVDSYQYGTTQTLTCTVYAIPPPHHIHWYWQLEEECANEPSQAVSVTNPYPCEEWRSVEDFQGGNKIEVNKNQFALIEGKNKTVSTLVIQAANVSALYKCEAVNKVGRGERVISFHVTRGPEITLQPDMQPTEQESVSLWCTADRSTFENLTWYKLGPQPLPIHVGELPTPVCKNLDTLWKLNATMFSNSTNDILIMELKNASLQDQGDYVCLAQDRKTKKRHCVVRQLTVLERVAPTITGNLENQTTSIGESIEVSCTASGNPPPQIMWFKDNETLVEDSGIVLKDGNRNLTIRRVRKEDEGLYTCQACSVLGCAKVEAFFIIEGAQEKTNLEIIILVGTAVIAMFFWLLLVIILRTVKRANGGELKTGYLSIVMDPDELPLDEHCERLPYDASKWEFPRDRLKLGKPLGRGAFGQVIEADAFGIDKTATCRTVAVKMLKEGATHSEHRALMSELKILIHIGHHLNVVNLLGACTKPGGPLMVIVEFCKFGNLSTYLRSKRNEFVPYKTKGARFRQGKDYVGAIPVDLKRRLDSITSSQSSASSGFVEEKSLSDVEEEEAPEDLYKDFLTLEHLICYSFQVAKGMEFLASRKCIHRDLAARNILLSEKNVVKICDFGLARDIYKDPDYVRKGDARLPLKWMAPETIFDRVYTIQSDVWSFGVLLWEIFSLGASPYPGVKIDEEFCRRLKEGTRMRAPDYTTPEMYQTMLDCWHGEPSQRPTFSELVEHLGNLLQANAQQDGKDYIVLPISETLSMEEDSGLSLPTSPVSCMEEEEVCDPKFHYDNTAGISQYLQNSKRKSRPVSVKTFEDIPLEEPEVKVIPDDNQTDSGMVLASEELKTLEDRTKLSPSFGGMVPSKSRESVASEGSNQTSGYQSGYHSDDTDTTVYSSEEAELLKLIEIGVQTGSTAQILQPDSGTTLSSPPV", "assay": "Kinase inhibitory activity, full kinase panel", "assay_type": "biochemical", "details": "single concentration of 1 μM, read-out: %Inhibitory ability", "experimental": "as §2"}, "[22]": {"target": "RET (Homo sapiens, UniProt P07949)", "assay": "Kinase inhibitory activity, full kinase panel", "assay_type": "biochemical", "details": "single concentration of 1 μM, read-out: %Inhibitory ability", "experimental": "as §2"}, "[23]": {"target": "LOK (Homo sapiens, UniProt O94804)", "assay": "Kinase inhibitory activity, full kinase panel", "assay_type": "biochemical", "details": "single concentration of 1 μM, read-out: %Inhibitory ability", "experimental": "as §2"}, "[24]": {"target": "PDGFRB (Homo sapiens, UniProt P09619)", "assay": "Kinase inhibitory activity, full kinase panel", "assay_type": "biochemical", "details": "single concentration of 1 μM, read-out: %Inhibitory ability", "experimental": "as §2"}, "[25]": {"target": "DAPK3 (Homo sapiens, UniProt O43293)", "assay": "Kinase inhibitory activity, full kinase panel", "assay_type": "biochemical", "details": "single concentration of 1 μM, read-out: %Inhibitory ability", "experimental": "as §2"}}, "data": [{"smiles": "NC(=O)Nc1cc(C#Cc2cccc(F)c2)sc1C(=O)N[C@H]1CCCNC1", "note": "[Example 22, (S)-5-((3-fluorophenyl)ethynyl)-N-(piperidin-3-yl)-3-ureidothiophene-2-carboxamide]", "values": [{"measurement": "mouse body weight", "setting": "[1]", "value": "did not alter the mouse body weight"}, {"measurement": "extension of lifespan compared with vehicle control", "setting": "[2]; 15 mpk", "value": 26, "unit": "days"}, {"measurement": "Median survival", "setting": "[2]; 15 mpk, po", "value": 23}, {"measurement": "extension of lifespan compared with vehicle control", "setting": "[2]; 30 mpk", "value": 29, "unit": "days"}, {"measurement": "Median survival", "setting": "[2]; 30 mpk, po", "value": 27}, {"measurement": "life-span of the mouse model (in words)", "setting": "[2]; po, qd, 15, 30 mg/kg", "value": "extended significantly the life-span"}, {"measurement": "spleen size (spleen weight over mouse body weight)", "setting": "[3]", "value": "reduced to the disease free spleen size"}]}, {"smiles": "Cc1ccc(C#Cc2cc(NC(N)=O)c(C(=O)N[C@H]3CCCNC3)s2)cc1", "note": "[Example 24, (S)—N-(piperidin-3-yl)-5-(p-tolylethynyl)-3-ureidothiophene-2-carboxamide]", "values": [{"measurement": "inhibition at 1 µM", "setting": "[4]", "value": 76, "unit": "%"}, {"measurement": "inhibition at 1 µM", "setting": "[5]", "value": 83, "unit": "%"}, {"measurement": "inhibition at 1 µM", "setting": "[6]", "value": 92.7, "unit": "%"}, {"measurement": "inhibition at 1 µM", "setting": "[7]", "value": 93.3, "unit": "%"}, {"measurement": "inhibition at 1 µM", "setting": "[8]", "value": 82, "unit": "%"}, {"measurement": "inhibition at 1 µM", "setting": "[9]", "value": 97.1, "unit": "%"}, {"measurement": "inhibition at 1 µM", "setting": "[10]", "value": 99.9, "unit": "%"}, {"measurement": "inhibition at 1 µM", "setting": "[11]", "value": 83, "unit": "%"}, {"measurement": "inhibition at 1 µM", "setting": "[12]", "value": 94.1, "unit": "%"}, {"measurement": "inhibition at 1 µM", "setting": "[13]", "value": 94.5, "unit": "%"}, {"measurement": "inhibition at 1 µM", "setting": "[14]", "value": 80, "unit": "%"}, {"measurement": "inhibition at 1 µM", "setting": "[15]", "value": 83, "unit": "%"}, {"measurement": "inhibition at 1 µM", "setting": "[16]", "value": 83, "unit": "%"}, {"measurement": "inhibition at 1 µM", "setting": "[17]", "value": 96.3, "unit": "%"}, {"measurement": "inhibition at 1 µM", "setting": "[18]", "value": 96.1, "unit": "%"}, {"measurement": "inhibition at 1 µM", "setting": "[19]", "value": 99.5, "unit": "%"}, {"measurement": "inhibition at 1 µM", "setting": "[20]", "value": 63, "unit": "%"}, {"measurement": "inhibition at 1 µM", "setting": "[21]", "value": 73, "unit": "%"}, {"measurement": "inhibition at 1 µM", "setting": "[22]", "value": 98.7, "unit": "%"}, {"measurement": "inhibition at 1 µM", "setting": "[23]", "value": 71, "unit": "%"}, {"measurement": "inhibition at 1 µM", "setting": "[24]", "value": 99.9, "unit": "%"}, {"measurement": "inhibition at 1 µM", "setting": "[25]", "value": 84, "unit": "%"}]}]}
